Drawing on patent US20080287472A1 (priority 2002, published 2008), this text covers melting point and control of disease for 2 compounds.

Series [1] relates to Erysiphe graminis f.sp. hordei (barley powdery mildew). The settings on record: in vivo.
Series [2] relates to Pyricularia oryzae (rice blast). Format: in vivo. The settings on record: 200 ppm, rice leaf segments, sprayed before inoculation, assessed four days after inoculation.
Series [3] deals with Erysiphe graminis f.sp. tritici (wheat powdery mildew). The settings on record: in vivo.

As for `CCC(C)Nc1nc2ncncc2c(Cl)c1-c1c(F)cc(F)cc1F` (stereo not shown), the melting point (usually the temperature of the solid-liquid transition) worked out at 179 °C.

Regarding `CC(C)Nc1c(-c2c(F)cc(F)cc2F)c(Cl)nc2cncnc12` [Compound 3 (1), [6-chloro-7-(2,4,6-trifluorophenyl)-pyrido[3,2-d]pyrimidin-8-yl]-isopropylamine], the control of disease entry in series [1], in series [2] and in series [3] was “greater than 60%” in each case.
